Legend:
[1] = target: T1, human vanilloid receptor-like receptor (VR-L) (Homo sapiens, UniProt Q9Y5S1); test: Xenopus oocyte expression, two-electrode voltage clamp at -70 mV; format: cell-based; details: 1 μM capsaicin in the perfusate; Xenopus oocytes expressing human vr-l cDNA
T1 sequence (Q9Y5S1 1-764): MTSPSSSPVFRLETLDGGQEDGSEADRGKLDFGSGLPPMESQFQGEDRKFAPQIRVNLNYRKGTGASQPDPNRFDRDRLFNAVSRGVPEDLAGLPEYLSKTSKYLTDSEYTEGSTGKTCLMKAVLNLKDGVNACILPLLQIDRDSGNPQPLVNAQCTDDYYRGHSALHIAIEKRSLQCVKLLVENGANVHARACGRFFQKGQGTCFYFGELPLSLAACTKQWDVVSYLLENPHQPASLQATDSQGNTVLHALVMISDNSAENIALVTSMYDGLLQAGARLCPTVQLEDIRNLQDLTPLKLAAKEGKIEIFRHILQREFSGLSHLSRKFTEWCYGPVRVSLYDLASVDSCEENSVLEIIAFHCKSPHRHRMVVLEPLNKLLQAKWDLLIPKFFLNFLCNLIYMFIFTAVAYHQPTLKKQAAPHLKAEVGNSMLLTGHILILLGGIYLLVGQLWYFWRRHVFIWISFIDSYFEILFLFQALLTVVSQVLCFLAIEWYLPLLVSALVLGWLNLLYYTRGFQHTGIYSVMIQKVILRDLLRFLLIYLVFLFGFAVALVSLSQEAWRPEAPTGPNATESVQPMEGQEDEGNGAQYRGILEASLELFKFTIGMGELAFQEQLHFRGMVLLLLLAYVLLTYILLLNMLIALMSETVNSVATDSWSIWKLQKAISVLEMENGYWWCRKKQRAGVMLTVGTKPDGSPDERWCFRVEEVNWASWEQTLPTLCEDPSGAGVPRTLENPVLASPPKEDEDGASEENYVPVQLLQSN
Protocol: Adult female Xenopus laevis were anaesthetized by immersion in a 0.4% solution of 3-aminobenzoic acid ethylester for 30–45 mins (or until unresponsive). Ovary tissue was removed via a small abdominal incision and Stage V and VI oocytes were isolated with fine forceps. After mild collagenase treatment to remove follicle cells (Type 1A, 0.5 mg mL^−1, for 8 mins), the oocyte nuclei were directly injected with 10–20 nl of injection buffer (88 mM NaCl, 1 mM KCl, 15 mM HEPES, at pH 7, filtered through nitrocellulose) or sterile water containing vr-l cDNA engineered into the expression vector pcDNA3.1Zeo. Following incubation for 48 hrs, oocytes were placed in a 50 μL bath and perfused at 4–6 mL min^−1 with modified Barth's medium (MBS) consisting of 88 mM NaCl, 1 mM KCl, 10 mM HEPES, 0.82 mM MgSO4, 0.33 mM Ca(NO3)2, 0.91 mM CaCl2, 2.4 mM NaHCO3, at pH 7.5. Cells were impaled with two 1–3 MΩ electrodes containing 2 M KCl and voltage clamped between at −70 mV. Drugs were applied in the perfusate and heat was applied by bath applying preheated MBS.

[2] = target: T1, human vanilloid receptor-like receptor (VR-L); test: Whole-cell patch clamp of HEK 293 cells transiently transfected with vr-l cDNA; format: cell-based; design: identified as together containing the entire coding region of the VR-L gene; expressed in transfected cells; host or cells: HEK 293 cells, transient transfection; details: 1 μM capsaicin by fast perfusion; HEK 293 cells expressing human vr-l cDNA, -60 mV
Source text: A glass coverslip containing a monolayer of human embryonic kidney (HEK) 293 cells transiently transfected with the vr-l cDNA was placed in a perspex chamber mounted on the stage of a Nikon Diaphot inverted phase-contrast microscope and continuously perfused with calcium-free artificial cerebrospinal fluid (aCSF, see below). Fire-polished patch pipettes were pulled on program 10 of a WZ, DMZ-Universal puller using conventional 120TF-10 electrode-glass. Pipette tip diameter was generally 1.5–2.5 μM, resistances were approximately 4MΩ. The intracellular pipette solution used is detailed below. High resistance (>10 GΩ) seals were formed by advancing the pipette onto the cell and exerting gentle suction to break through the membrane. The cells were voltage-clamped at −60 mV, using an Axon Axopatch 2 amplifier. Drugs or heated aCSF were applied to the cell under study by fast perfusion using a large internal diameter (50–100 μM) triple-barrel pipette assembly. Drug responses were obtained by rapidly positioning the perfusion pipette to completely envelop the cell in drug solution. This was achieved via a Biologic rapid solution changer which pivots the barrels into the desired position. Fast washout was obtained by re-positioning the washout barrel in line with the cell. [table] [table]

## COc1cc(CNC(=O)CCCC/C=C/C(C)C)ccc1O [capsaicin]
[1]
  response (inward current) to application of drug: No responses
[2]
  response (inward current) to application of drug: No responses

Source: patent US7179898B1, “Human vanilloid receptor-like receptor” (Merck & Co., Inc., priority 1998, dated 2007)
